Target: estrogen receptor α (Homo sapiens, UniProt P03372)
Assay: ERE-Luc/catD-Luc reporter assay in SH-SY5Y cells
Assay type: cell-based

Sequence of estrogen receptor α (P03372 whole entry): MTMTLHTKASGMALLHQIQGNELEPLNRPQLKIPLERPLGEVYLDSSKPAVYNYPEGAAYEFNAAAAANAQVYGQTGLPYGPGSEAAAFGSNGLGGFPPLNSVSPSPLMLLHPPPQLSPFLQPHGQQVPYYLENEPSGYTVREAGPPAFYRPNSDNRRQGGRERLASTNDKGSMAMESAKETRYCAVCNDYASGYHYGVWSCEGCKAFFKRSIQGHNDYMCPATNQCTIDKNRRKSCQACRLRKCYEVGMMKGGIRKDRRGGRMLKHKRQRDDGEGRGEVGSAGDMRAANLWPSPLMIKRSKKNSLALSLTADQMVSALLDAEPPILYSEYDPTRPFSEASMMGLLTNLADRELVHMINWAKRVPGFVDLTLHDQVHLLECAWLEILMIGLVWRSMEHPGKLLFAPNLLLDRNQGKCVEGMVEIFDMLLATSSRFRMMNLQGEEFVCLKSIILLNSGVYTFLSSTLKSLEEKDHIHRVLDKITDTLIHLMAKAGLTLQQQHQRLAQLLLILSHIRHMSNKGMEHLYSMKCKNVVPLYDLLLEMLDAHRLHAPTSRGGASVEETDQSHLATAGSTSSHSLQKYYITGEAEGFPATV

## nonylphenol
  EC50: 580 ± 250 nM

— paper PMC4913548 (OncoTargets and therapy, 2016)
